From patent publication US7271253B1, “Safe process for the preparation of balsalazide” (Apotex Pharmachem Inc., priority 2006, dated 2007)

Legend:
[1] = Solubility in water of N-(4-aminobenzoyl)-β-alanine salts; assay type: physicochemical
Text: According to one aspect of the invention, a more soluble salt of N-(4-aminobenzoyl)-β-alanine is provided which overcomes the use of the previous forms which were virtually insoluble in water.
(for example as depicted in FIG. 1). This latter temperature was selected as it provided for optimal reaction.
The preferred concentration of the aqueous sulfonic acid solution was about 4% to about 14%, more preferably about 7% to about 12%, and most preferably about 9%. The fact that higher concentrations were preferred, despite the decreased solubility of the salt, was a consequence of the fact that operationally, the use of about 9% sulfonic acid concentrations permitted proportionally lower reaction volumes, without compromising safety, and was advantageous for commercial scale-up.
FIG. 3—A comparison of the relative solubility of mesylate in differing concentrations of aqueous methanesulfonic acid.

[2] = RSST, different reaction temperatures, FIG. 1
Text: The decomposition of the intermediate was indicated by the pressure increase.
FIG. 1—Plot showing the rate of decomposition of diazonium mesylate at different temperatures. Increased pressure is indicative of the decomposition of the mesylate to form nitrogen gas.

[3] = DSC, FIG. 2

In the case of `CS(=O)(=O)O.Nc1ccc(C(=O)NCCC(=O)O)cc1` [methanesulfonic acid salt, N-(4-ammoniumbenzoyl)-β-alanine sulfonate salt], the solubility in water [1] is reported as “unexpectedly high water solubility”.

With `Nc1ccc(C(=O)NCCC(=O)O)cc1` [free-base, N-(4-aminobenzoyl)-β-alanine] the “solubility at higher concentrations of sulfonic acid” value ([1]; differing concentrations of aqueous methanesulfonic acid, FIG. 3) was “decrease in the solubility”.

For `Nc1ccc(C(=O)NCCC(=O)O)cc1` [chloride, N-(4-aminobenzoyl)-β-alanine], the solubility in water [1] was “poorly soluble” and the solubility in water ([1]; listed as hydrochloride salt of 4-aminobenzoyl-β-alanine) was “poor solubility”.

With `CS(=O)(=O)[O-].N#[N+]c1ccc(C(=O)NCCC(=O)O)cc1` [diazonium mesylate, N-(4-diazoniumbenzoyl)-β-alanine sulfonate salt] the “temperature at which decomposition may start” value [2] was 25 °C and the “decomposition energy of solid relative to solution” value [3] was “almost ten-fold higher”.
